According to PMC3608422 (Xenobiotica; the fate of foreign compounds in biological …, 2011):
Where two headings read alike, the source gives them in different places.

What was measured:
[1] = target: CB1Rs; settings: read-out: affinity for CB1Rs; ref Mechoulam et al. 1995; cited from earlier work
[2] = target: CB2Rs; settings: read-out: affinity for CB2Rs; ref Mechoulam et al. 1995; cited from earlier work
[3] = target: mCB1Rs (Mus musculus, UniProt P47746); format: biochemical; settings: for effect on basal G-protein activity ([35S]GTPγS binding): 10 µM
[4] = target: mouse brain CB1Rs (mCB1Rs) (Mus musculus, UniProt P47746); test: biochemical; format: binding; settings: for Selectivity: mCB1 versus hCB2 binding; for hCB2/mCB1 (Ki ratio): ratio of Ki hCB2 to Ki mCB1
[5] = target: human CB2Rs (hCB2Rs) stably expressed in CHO cells (Homo sapiens, UniProt P34972); test: biochemical; format: binding
[6] = tested on: UGT1A1
[7] = tested on: UGT1A9
[8] = co-administration with 10 µM of the compound
[9] = co-administration with 30 µM of the compound

Chain of human CB2Rs (hCB2Rs) stably expressed in CHO cells (P34972 whole entry): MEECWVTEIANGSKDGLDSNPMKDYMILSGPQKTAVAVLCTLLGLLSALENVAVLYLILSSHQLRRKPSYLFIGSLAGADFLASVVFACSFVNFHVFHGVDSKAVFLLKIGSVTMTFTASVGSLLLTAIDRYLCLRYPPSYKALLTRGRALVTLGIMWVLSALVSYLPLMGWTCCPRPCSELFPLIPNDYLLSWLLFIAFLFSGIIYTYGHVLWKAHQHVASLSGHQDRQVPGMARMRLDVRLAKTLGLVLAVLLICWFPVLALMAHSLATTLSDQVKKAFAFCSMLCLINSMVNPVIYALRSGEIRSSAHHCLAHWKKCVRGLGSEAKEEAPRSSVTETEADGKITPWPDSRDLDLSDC
Chain of mouse brain CB1Rs (mCB1Rs) (P47746 whole entry): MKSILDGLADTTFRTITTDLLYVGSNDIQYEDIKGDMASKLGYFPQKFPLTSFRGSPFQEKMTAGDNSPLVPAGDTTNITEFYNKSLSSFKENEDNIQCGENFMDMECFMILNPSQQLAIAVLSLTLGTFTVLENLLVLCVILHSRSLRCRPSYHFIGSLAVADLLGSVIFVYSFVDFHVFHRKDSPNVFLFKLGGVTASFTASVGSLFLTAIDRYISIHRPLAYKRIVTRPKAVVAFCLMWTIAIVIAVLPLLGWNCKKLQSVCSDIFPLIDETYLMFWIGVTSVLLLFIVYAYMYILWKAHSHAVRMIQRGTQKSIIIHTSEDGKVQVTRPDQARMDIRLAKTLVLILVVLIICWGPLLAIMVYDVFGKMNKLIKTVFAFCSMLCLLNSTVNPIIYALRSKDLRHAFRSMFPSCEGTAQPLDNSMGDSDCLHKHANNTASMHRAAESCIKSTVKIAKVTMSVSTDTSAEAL
Chain of mCB1Rs (P47746 whole entry): as above

SMILES	Ki [4] [µM]	Selectivity [4]	hCB2/mCB1 (Ki ratio) [4]	Ki [5] [µM]	effect on basal G-protein activity ([35S]GTPγS binding) ([3]; mouse brain membranes)	further results
CCCCC/C=C\C/C=C\C/C=C\C/C=C\CCCC(=O)OC(CO)CO [2-arachidonoylglycerol]	–	–	–	–	–	Ki [1]: ~500 nM; Ki [2]: ~1500 nM
CC1=CC[C@@H]2[C@@H](C1)c1c(O)cc(CC#CCCCNS(C)(=O)=O)cc1OC2(C)C [O-2050, reference compound]	–	–	–	–	–	effect on G-protein activity ([35S]GTPγS binding) ([3]; mouse brain membranes, 1 µM): produced no effect
CC(C)C=Cc1c(O)cc(/C=C/c2ccc(O)c(O)c2)cc1O [tA1, trans-4-(3-methyl-1-butenyl)-3,5,3′,4′-tetrahydroxystilbene]	5.6 ± 0.4	Non-selective	2.3	12.6 ± 1.7	markedly reduce	ED50 of CB1R agonist CP-55,940 to activate G-proteins on co-administration [3, 8]: 28 nM; fold increase (shift-to-the-right) in ED50 of CP-55,940 [3, 8]: 7 fold; maximal response produced by CP-55,940 on co-administration [3, 8]: 0.22 ± 0.04 pmol/mg protein; attenuation by O-2050 of the reduction of basal G-protein activity ([3]; compound 10 µM co-incubated with neutral CB1R antagonist O-2050 1 µM): did not significantly attenuate; glucuronidation by UGT1A1 [6]: no visible glucuronidation; concentration at which substrate inhibition is seen [7]: > 500 µM
CC(C)C=Cc1c(O)cc(/C=C/c2ccc(O)cc2)cc1O [tA3, trans-4-(3-methyl-1-butenyl)-3,5,4′-trihydroxystilbene]	17.5 ± 3.4	Non-selective	0.6	11.3 ± 0.6	have little effect	ED50 of CB1R agonist CP-55,940 to activate G-proteins on co-administration [3, 9]: 127 nM; fold increase (shift-to-the-right) in ED50 of CP-55,940 [3, 9]: 30 fold
Oc1cc(O)cc(/C=C/c2ccc(O)c(O)c2)c1 [tPice, trans 3,5,3′,4′-tetrahydroxystilbene, reference compound]	11.7 ± 1	CB1	9.7	114 ± 7.8	markedly reduce	–
Oc1ccc(/C=C/c2cc(O)cc(O)c2)cc1 [tRes, trans-3,5,4′-trihydroxystilbene, reference compound]	14.3 ± 1.6	–	–	–	–	–
